Experimental data as given in US6541463B1, “Inhibitors of type 5 and type 3 17β-hydroxysteroid dehydrogenase and methods for their use” (Endorecherche, Inc., priority 1998, dated 2003).
Read-outs that look alike come from different tables or passages of the source.

Columns and labels:
[1] = biological target: T1, estrogen receptor (Rattus norvegicus, UniProt P06211); assay: Estrogen receptor (ER) assay: inhibition of [3H]E2 binding, uterine cytosol
T1 construct: from tissue; host or cells: uterine cytosol of gonadectomized female Sprague-Dawley rats
T1 sequence (P06211 1-600): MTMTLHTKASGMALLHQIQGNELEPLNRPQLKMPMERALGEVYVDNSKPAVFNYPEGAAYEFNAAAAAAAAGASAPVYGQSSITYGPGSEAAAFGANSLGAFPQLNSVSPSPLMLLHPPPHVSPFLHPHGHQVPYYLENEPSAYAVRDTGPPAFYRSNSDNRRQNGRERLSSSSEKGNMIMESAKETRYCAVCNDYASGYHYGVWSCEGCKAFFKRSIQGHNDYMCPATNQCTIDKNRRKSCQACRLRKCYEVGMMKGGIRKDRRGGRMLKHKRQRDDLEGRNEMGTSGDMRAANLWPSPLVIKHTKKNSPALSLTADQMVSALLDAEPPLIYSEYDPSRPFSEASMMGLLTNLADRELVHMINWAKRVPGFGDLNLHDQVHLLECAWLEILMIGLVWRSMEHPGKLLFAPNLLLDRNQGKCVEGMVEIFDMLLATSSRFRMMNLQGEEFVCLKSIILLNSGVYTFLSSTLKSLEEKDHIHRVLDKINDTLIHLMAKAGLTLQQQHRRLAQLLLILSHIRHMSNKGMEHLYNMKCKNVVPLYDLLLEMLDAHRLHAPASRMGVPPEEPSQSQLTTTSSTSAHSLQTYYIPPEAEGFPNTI
Protocol: Female Sprague-Dawley rats (Crl: CD(SD)Br) weighing 200-300 g were obtained from Charles-River Inc. (St-Constant, Québec, Canada). The rats were gonadectomized under general anesthesia (Isoflurane) and killed by cervical dislocation 24 hours later. The uteri were rapidly removed, dissected free from adhering tissue and frozen on dry-ice. Uteri were kept at −80° C. until assay. All subsequent steps were performed at 0-4° C. Uteri were homogenized in 10 vol (wt/vol) of buffer A (25 mM Tris-HCI, 1.5 mM EDTA disodium salt, 10 mM α-monothioglycerol, 10% glycerol, and 10 mM sodium molybdate, pH 7.4), using a Polytron PT-10 homogenizer (Brinkman Instruments, Canada) at a setting of 5 for three periods of 10 sec, with intervals of 10 sec for cooling. The homogenate was then centrifuged at 105,000×g for 60 min in a Beckman L5-65 ultracentrifuge (Fullerton, Calif.). The protein concentration of the cytosol fraction was measured according to the method of Bradford (Anal. Biochem. 72: 248-254, 1976), using bovine serum albumin as standard.
Estrogen binding was measured using the dextran-coated charcoal adsorption technique as described previously (Asselin et al., Endocrinology, 101: 666-671, 1977; Asselin and Labrie, J. Steroid Biochem., 9: 1079-1082, 1978). Briefly, [^3H]E2 solubilized in ethanol were diluted into buffer A. Aliquots of uterine cytosol preparation (0.1 ml) were incubated with 5 nM [^3H]E2 (˜200,000 cpm, 0.1 ml) in the presence or absence of the indicated concentrations of unlabeled compounds (0.1 ml, prepared in buffer A containing 10% ethanol) for 3 h at room temperature. Unbound steroids were then separated by incubation for 15 min at 0-4° C. with 0.3 ml 0.5% Norit-A and 0.05% Dextran T-70 in buffer B (1.5 mM EDTA disodium salt, 10 mM monothioglycerol, and 10 mM Tris-HCI, pH 7.4) and centrifuged at 3,000×g for 15 min. Aliquots of the supernatant (0.3 ml) were removed for radioactivity measurement.

[2] = system: Shionogi mouse mammary carcinoma cells; assay: Antiandrogenic activity: inhibition of DHT-induced proliferation of Shionogi cells; type: cell-based; conditions: for IC50: Mus musculus
Protocol: The manner in which the inhibition is determined is described in “Other Tests; B-Androgenic/Antiandrogenic Activity”. Lower numbers are desirable. ND means that a determination was not done.
Androgenic/antiandrogenic activity of some preferred compounds has been measured using the Shionogi mouse mammary carcinoma cells.
Minimal essential culture medium (MEM), non-essential amino acids, and fetal calf serum were purchased from Flow Laboratories. In order to remove endogenous steroids, serum was incubated overnight at 4° C. with 1% activated charcoal (Norit A, Fisher) and 0.1% Dextran T-70 (Pharmacia). A 2-h supplementary adsorption was performed at 25° C. in order to further remove protein-bound steroids. Serum was also inactivated by a 20-min incubation at 56° C.
5α-dihydrotestosterone (DHT) was obtained from Steraloids. The antiandrogen hydroxyflutamide (OH-FLU) was kindly supplied by Drs. T. L. Nagabuschan and R. Neri (Schering Corporation, Kenilworth, U.S.A.).
Shionogi male mice bearing androgen-sensitive mammary tumors were obtained from Drs. Keishi Matsumoto, Osaka, Japan, and Yvonne Lefebvre, Ottawa, Canada. For primary culture, tumors were excised and washed in ice-cold sterile 25 mM Hepes buffer (137 mM NaCl; 5 mM KCl; 0.7 mM Na2HPO4; 10 mM glucose, pH 7.2). After mincing with scissors, the tumor minces were digested for 2 h at 37° C. in Hepes buffer containing 3.8 mg/ml collagenase (Clostridium, Boehringer), 1.5 mg/ml hyaluronidase II (Sigma), and 3% bovine serum albumin fraction V (Schwartz-Mann). Dispersed cells were collected by centrifugation (500×g for 10 min), washed twice by suspension in minimal essential medium (MEM) containing 5% dextran-coated charcoal-treated fetal calf serum (DCC-FCS), 1% non-essential amino acids, 10 IU/ml penicillin, 50 μg/ml streptomycin, and 100 nM dihydrotestosterone (DHT) (Steraloids).
Cells were plated in the same medium at a density of 75 000 cells/ml in 75 cm^2 flasks under an atmosphere of 5% carbon dioxide in air at 37° C. The medium was changed weekly. The steroids and antisteroids were dissolved in ethanol and kept in stock solutions chosen to yield final ethanol concentrations less than 0.01% in the culture medium.
Cells were subcultured at near-confidence by gentle digestion in a solution of 0.1% pancreatin (Flow Laboratories) in Hepes buffer containing 3 mM ethylenediaminetetraacetic acid (EDTA) (pH 7.2). Cells were pelleted by centrifugation, resuspended in culture medium, counted in a Coulter counter, and replated as described above. Soft agar cloning was performed as described (Stanley et al., Cell 10: 35-44, 1977) in the presence of 100 nM DHT.
Cells were plated in 24-well plates at a density of 20 000 cells/well. The indicated increasing concentrations of agents were added to triplicate dishes, and cells were grown for 10-12 days with changes of medium every 3-4 days. Cell number was measured by direct counting in a Coulter counter.
ED50 values of action of DHT and glucocorticoids were calculated according to a least-square regression as described (Rodbard, Endocrinology 94: 1427-1431, 1974). Statistical significance was calculated according to a multiple-range test (Kramer, Biometrics 12: 307-310,1956).

[3] = Table 4′, DHT-induced proliferation, E^−6 (10^−6 M)
[4] = Table 4′, DHT-induced proliferation, E^−7

SMILES	Antiandrogenic Activity Shionogi, DHT E^−6 [2, 3] [%]	Antiandrogenic Activity Shionogi, DHT E^−7 [2, 4] [%]	further results
CC1(C)CCC2(CCC3C4CCc5cc(OS(C)(=O)=O)ccc5C4CCC32C)OC1=O (centres unmarked) [EM-1365-CS]	−53	−17	% Inhibition Estrogen Receptor E^−6 ([1]; Table 4′, E^−6): 4%; % Inhibition Estrogen Receptor E^−8 ([1]; Table 4′, E^−8): 2%
CC(=O)O[C@]1(C(=O)N(C)C)CCC2C3C=C(C)C4=CC(=O)CC[C@]4(C)C3CC[C@@]21C (some centres unmarked) [EM-1159]	–	–	% Inhibition Estrogen Receptor ([1]; E^−6): 1%; % Inhibition Estrogen Receptor ([1]; E^−8): 0%; Antiandrogenic Activity Shionogi, DHT ([2]; DHT, E^−6): −71; Antiandrogenic Activity Shionogi, DHT ([2]; DHT, E^−7): 1
COc1cc2c(cc1C)C1CCC3(C)C(CCC34CCC(C)(C)C(=O)O4)C1CC2 (centres unmarked) [EM-1412-CS]	−60	0	% Inhibition Estrogen Receptor E^−6 ([1]; Table 4′, E^−6): 0%; % Inhibition Estrogen Receptor E^−8 ([1]; Table 4′, E^−8): 0%
CN1C(=O)C=C[C@]2(C)C3CC[C@@]4(C)C(CC[C@@]45CCCC(=O)O5)C3CCC12 (some centres unmarked) [EM-1122-CS]	–	–	% Inhibition Estrogen Receptor E^−6 ([1]; Table 5 column 16, E^−6): 0%; % Inhibition Estrogen Receptor E^−8 ([1]; Table 5 column 16, E^−8): 2%; IC50 ([2]; Table 5, bracketed value, read-out: Antiandrogenic Activity Shlonogl, DHT [IC50 (nM)]): 447 nM; Antiandrogenic Activity Shlonogl, DHT E^−6 ([2]; Table 5, DHT, E^−6): −74%; Antiandrogenic Activity Shlonogl, DHT E^−7 ([2]; Table 5, DHT, E^−7): −14%
CC1CCC2(CCC3C4CCc5cc(O)c([N+](=O)[O-])cc5C4CCC32C)OC1=O [EM-1126, 2-Nitro-1,3,5(10)-estratrien-3-ol-17(R)-spiro-2′-(5′-methyl-6′-oxo)tetrahydropyran]	−49	0	% Inhibition Estrogen Receptor E^−6 ([1]; Table 4′, E^−6): 0%; % Inhibition Estrogen Receptor E^−8 ([1]; Table 4′, E^−8): 1%
CN(C)C(=O)c1cc2c(cc1O)CCC1C2CCC2(C)C1CCC21CCC(C)(C)C(=O)O1 (centres unmarked) [EM-01661-B]	−15	3	–
CC1=C[C@@H]2[C@H](CC[C@]3(C)C(=O)C4(CCCCC4)C[C@@H]23)[C@@]2(C)CCC(=O)C=C12 [EM-925]	–	–	Antiandrogenic Activity Shionogi, DHT E^−6 ([2]; with DHT, E^−6): −7; Antiandrogenic Activity Shionogi, DHT E^−7 ([2]; with DHT, E^−7): 15
COC(=O)c1cc2c(cc1O)CCC1C2CCC2(C)C1CCC21CCC(C)(C)C(=O)O1 (centres unmarked) [EM-01662]	−51	−11	–
C=CCC1CCC2(CCC3C4CCc5cc(O)ccc5C4CCC32C)OC1=O [PB-132-152, 3-Hydroxy-1,3,5(10)-estratrien-17(R)-2′-(5′-allyl-6′-oxo)tetrahydropyran]	−19	14	–
COCCOc1cc2c(cc1F)C1CCC3(C)C(CCC34CCC(C)(C)C(=O)O4)C1CC2 (centres unmarked) [EM-1393-CS]	−104	27	–
CC1CC(=O)OC2(CCC3C4CCc5cc(O)ccc5C4CCC32C)C1 [PB-132-142, 3-Hydroxy-1,3,5(10)-estratrien-17(R)-spiro-2′-(4′-methyl-6′-oxo)tetrahydropyran]	−13	0	–
CC(=O)O[C@]1(C(C)=O)CCC2C3C=C(C)C4=CC(=O)CC[C@]4(C)C3CC[C@@]21C (some centres unmarked) [megestrol acetate, reference compound]	–	–	IC50 ([2]; read-out: Antiandrogenic Activity Shionogi, DHT [IC50]): 10 nM
COCCOc1cc2c(cc1C(=O)N(C)C)C1CCC3(C)C(CCC34CCC(C)(C)C(=O)O4)C1CC2 (centres unmarked) [EM-1413-CS]	−44	–	–
CC1(C)CCC2(CCC3C4CCc5cc(O)c(C#N)cc5C4CCC32C)OC1=O (centres unmarked) [EM-01645]	−10	−6	–
CC1(C)CCC2(CCC3C4CCc5cc(C(=O)OCc6ccccc6)ccc5C4CCC32C)OC1=O (centres unmarked) [EM-1398]	−37	0	–
COc1cc2c(cc1C(F)(F)F)C1CCC3(C)C(CCC34CCC(C)(C)C(=O)O4)C1CC2 [EM-1409, 3-Methoxy-2-trifluoromethyl-1,3,5(10)-estratrien-17(R)-spiro-2′-(5′,5′-dimethyl-6′-oxo)tetrahydropyran]	−105	−5	–
CC1(C)CCC2(CCC3C4CCc5cc(O)c(C(N)=O)cc5C4CCC32C)OC1=O (centres unmarked) [EM-01660]	−51	−20	–
CC12CCC3c4ccc(O)cc4CCC3C1CCC21CC=CC(=O)O1 [PB-132-140, 3-hydroxy-1,3,5(10)-estratrien-17(R)-spiro-2′-(4′,5′-dihydro-6′-oxo)pyran]	0	16	–
COC(=O)C1CCC2(CCC3C4CCc5cc(O)ccc5C4CCC32C)OC1=O [PB-132-146, 3-Hydroxy-1,3,5(10)-estratrien-17(R)-2′-(5′-methoxycarbonyl-6′-oxo)tetrahydropyran]	−40	14	–
